Counter-ions that a name gives are not always drawn.
Test system: Aβ42 production in H4 cells stably transfected with APP751 containing the Swedish mutation (H4 APP751 SWE clone 8.20)
Test: Cellular assay for inhibition of Aβ1-42 production (H4 APP751 SWE clone 8.20)
Type: cell-based
Settings: H4 APP751 SWE clone 8.20 cells, 19 h incubation
Method: Cellular Assays for Inhibition of Aβ1-40 and Aβ1-42 Production
H4 cells stably transfected with APP751 containing the Swedish mutation (H4 APP751 SWE clone 8.20, developed at BMS) were maintained in log phase through twice weekly passage at a 1:20 split. […] Following incubation for 19 h in 5% CO2 at 37° C., plates were briefly centrifuged (1000 rpm, 5 min). A 10 μl aliquot from each well was transferred to a second assay plate (Costar 3709) for Aβ40 measurements. Antibody cocktails were freshly prepared by dilution into 40 mM Tris-HCl (pH 7.4) with 0.2% BSA and added to assay plates. For Aβ42 measurements, antibodies specific for the Aβ42 neoepitope (565, developed at BMS; conjugated to the Wallac reagent (Perkin Elmer)) and the N-terminal sequence of Aβ peptide (26D6, developed at SIBIA; conjugated to APC (Perkin Elmer)) were mixed and 20 μl of the mixture was added to each well of the incubated cell plate yielding a final concentration of 0.8 ng/well 565 and 75 ng/well 26D6. For the Aβ40 measurements, antibodies specific for the Aβ40 neoepitope (TSD, developed at BMS; conjugated to the Wallac reagent (Perkin Elmer)) and 26D6 as described above were mixed and 20 μl of the mixture was added to the 10 μl aliquots which had been removed previously from the cell plate yielding a final concentration of 1.6 ng/well TSD and 17.5 ng/well 26D6. Assay plates containing antibodies were sealed with aluminum foil and incubated overnight at 4° C. Signal was determined using a Viewlux counter (Perkin Elmer) and IC50 values determined using curve fitting in CurveMaster (Excel Fit based).

[1] = Table 5A, 6-alkyl and 6-substituted phenyl thiazine examples
[2] = Table 5B, 6-heterocyclic thiazine examples

With `COc1ccc([C@@H]2C[C@@H](c3cc(-c4cncnc4)c(F)cc3F)N=C(N)S2)cc1OC` (racemic) [Example 1, (±)-4-(2,4-difluoro-5-(pyrimidin-5-yl)phenyl)-6-(3,4-dimethoxyphenyl)-5,6-dihydro-4H-1,3-thiazin-2-amine] the IC50 [1] was 1100 nM.

Work on `NC1=N[C@H](c2cccc(-c3cncnc3)c2)C[C@@H](c2ccccc2)S1` (racemic) [Example 2, (±)-6-phenyl-4-(3-(pyrimidin-5-yl)phenyl)-5,6-dihydro-4H-1,3-thiazin-2-amine] yielded an IC50 [1] of 4100 nM.

In the case of `COc1ccc([C@@H]2C[C@@H](c3cccc(-c4cncnc4)c3)N=C(N)S2)cc1OC` (racemic) [Example 3, (±)-6-(3,4-dimethoxyphenyl)-4-(3-(pyrimidin-5-yl)phenyl)-5,6-dihydro-4H-1,3-thiazin-2-amine], the IC50 [1] is reported as 1100 nM.

Work on `NC1=N[C@H](c2cccc(-c3cncnc3)c2)C[C@@H](Cc2ccccc2)S1` (racemic) [Example 4, (±)-6-benzyl-4-(3-(pyrimidin-5-yl)phenyl)-5,6-dihydro-4H-1,3-thiazin-2-amine] yielded an IC50 [1] of 7400 nM.

With `NC1=N[C@H](c2cccc(-c3cncnc3)c2)C[C@@H](C2CCCCC2)S1` (racemic) [Example 5, (±)-6-cyclohexyl-4-(3-(pyrimidin-5-yl)phenyl)-5,6-dihydro-4H-1,3-thiazin-2-amine] the IC50 [1] was 3800 nM.

Compound `C=CCC[C@@H]1C[C@@H](c2cccc(-c3cncnc3)c2)N=C(N)S1` (racemic) [Example 6, (±)-6-(but-3-enyl)-4-(3-(pyrimidin-5-yl)phenyl)-5,6-dihydro-4H-1,3-thiazin-2-amine] has an IC50 [1] of 14000 nM.

With `COc1ccc([C@@H]2C[C@@H](c3ccc(F)c(-c4cncnc4)c3)N=C(N)S2)cc1OC` (racemic) [Example 7, (±)-6-(3,4-dimethoxyphenyl)-4-(4-fluoro-3-(pyrimidin-5-yl)phenyl)-5,6-dihydro-4H-1,3-thiazin-2-amine] the IC50 [1] was 1700 nM.

Work on `COc1ccc([C@@H]2C[C@@H](c3cc(-c4cncnc4)ccc3F)N=C(N)S2)cc1OC` (racemic) [Example 8, (±)-6-(3,4-dimethoxyphenyl)-4-(2-fluoro-5-(pyrimidin-5-yl)phenyl)-5,6-dihydro-4H-1,3-thiazin-2-amine] yielded an IC50 [1] of 1900 nM.

`NC1=N[C@H](c2cccc(-c3cncnc3)c2)C[C@@H](c2ccc(OC(F)(F)F)cc2)S1` (racemic) [Example 9, (±)-4-(3-(pyrimidin-5-yl)phenyl)-6-(4-(trifluoromethoxy)phenyl)-5,6-dihydro-4H-1,3-thiazin-2-amine] gave an IC50 [1] of 8900 nM.

Compound `COc1ccccc1[C@@H]1C[C@@H](c2cccc(-c3cncnc3)c2)N=C(N)S1` (racemic) [Example 11, (±)-6-(2-methoxyphenyl)-4-(3-(pyrimidin-5-yl)phenyl)-5,6-dihydro-4H-1,3-thiazin-2-amine•TFA] has an IC50 [1] of 2400 nM.

Work on `N#Cc1ccc([C@@H]2C[C@@H](c3cccc(-c4cncnc4)c3)N=C(N)S2)cc1` (racemic) [Example 12, 4-((±)-2-amino-4-(3-(pyrimidin-5-yl)phenyl)-5,6-dihydro-4H-1,3-thiazin-6-yl)benzonitrile] yielded an IC50 [1] of 1800 nM.

Work on `COc1ccc([C@@H]2C[C@@H](c3cccc(-c4cncnc4)c3)N=C(N)S2)cc1` (racemic) [Example 13, (±)-6-(4-methoxyphenyl)-4-(3-(pyrimidin-5-yl)phenyl)-5,6-dihydro-4H-1,3-thiazin-2-amine] yielded an IC50 [1] of 3700 nM.

`NC1=N[C@H](c2cccc(-c3cncnc3)c2)C[C@@H](c2ccc(Cl)cc2)S1` (racemic) [Example 14, (±)-6-(4-chlorophenyl)-4-(3-(pyrimidin-5-yl)phenyl)-5,6-dihydro-4H-1,3-thiazin-2-amine•TFA] gave an IC50 [1] of 2700 nM.

Work on `COc1cccc([C@@H]2C[C@@H](c3cccc(-c4cncnc4)c3)N=C(N)S2)c1` (racemic) [Example 15, (±)-6-(3-methoxyphenyl)-4-(3-(pyrimidin-5-yl)phenyl)-5,6-dihydro-4H-1,3-thiazin-2-amine•TFA] yielded an IC50 [1] of 2800 nM.

In the case of `NC1=N[C@H](c2cccc(-c3cncnc3)c2)C[C@@H](c2ccc(F)cc2)S1` (racemic) [Example 16, (±)-6-(4-fluorophenyl)-4-(3-(pyrimidin-5-yl)phenyl)-5,6-dihydro-4H-1,3-thiazin-2-amine•TFA], the IC50 [1] is reported as 2600 nM.

Compound `COc1ccc([C@]23CCCCC2[C@@H](c2cccc(-c4cncnc4)c2)N=C(N)S3)cc1` (mixture of isomers) [Example 17, (±)-8a-(4-methoxyphenyl)-4-(3-(pyrimidin-5-yl)phenyl)-4a,5,6,7,8,8a-hexahydro-4H-benzo[e][1,3]thiazin-2-amine•TFA] has an IC50 [1] of 3300 nM.

Compound `Cc1n[nH]c(C)c1[C@@H]1C[C@@H](c2cccc(-c3cncnc3)c2)N=C(N)S1` (racemic) [Example 18, (±)-6-(3,5-dimethyl-1H-pyrazol-4-yl)-4-(3-(pyrimidin-5-yl)phenyl)-5,6-dihydro-4H-1,3-thiazin-2-amine•TFA] has an IC50 [2] of 7100 nM.

`Cc1noc(C)c1[C@@H]1C[C@@H](c2cccc(-c3cncnc3)c2)N=C(N)S1` (racemic) [Example 19, (±)-6-(3,5-dimethylisoxazol-4-yl)-4-(3-(pyrimidin-5-yl)phenyl)-5,6-dihydro-4H-1,3-thiazin-2-amine•TFA] gave an IC50 [2] of 230 nM.

Work on `NC1=N[C@H](c2cccc(-c3cncnc3)c2)C[C@@H](c2cccnc2)S1` (racemic) [Example 20, (±)-6-(pyridin-3-yl)-4-(3-(pyrimidin-5-yl)phenyl)-5,6-dihydro-4H-1,3-thiazin-2-amine•TFA] yielded an IC50 [2] of 7800 nM.

For `NC1=N[C@H](c2cccc(-c3cncnc3)c2)C[C@@H](c2c[nH]cn2)S1` (racemic) [Example 21, (±)-6-(1H-imidazol-4-yl)-4-(3-(pyrimidin-5-yl)phenyl)-5,6-dihydro-4H-1,3-thiazin-2-amine•TFA], the IC50 [2] was over 30000 nM.

With `NC1=N[C@H](c2cccc(-c3cncnc3)c2)C[C@@H](c2ccccn2)S1` (racemic) [Example 22, (±)-6-(pyridin-2-yl)-4-(3-(pyrimidin-5-yl)phenyl)-5,6-dihydro-4H-1,3-thiazin-2-amine•TFA] the IC50 [2] was 2000 nM.

Work on `NC1=N[C@H](c2cccc(-c3cncnc3)c2)C[C@@H](c2cnccn2)S1` (racemic) [Example 23, (±)-6-(pyrazin-2-yl)-4-(3-(pyrimidin-5-yl)phenyl)-5,6-dihydro-4H-1,3-thiazin-2-amine•TFA] yielded an IC50 [2] of 2400 nM.

Work on `Cc1ncsc1[C@@H]1C[C@@H](c2cccc(-c3cncnc3)c2)N=C(N)S1` (racemic) [Example 24, (±)-6-(4-methylthiazol-5-yl)-4-(3-(pyrimidin-5-yl)phenyl)-5,6-dihydro-4H-1,3-thiazin-2-amine•TFA] yielded an IC50 [2] of 1000 nM.

Work on `Cc1c([C@@H]2C[C@@H](c3cccc(-c4cncnc4)c3)N=C(N)S2)cnn1C` (racemic) [Example 25, (±)-6-(1,5-dimethyl-1H-pyrazol-4-yl)-4-(3-(pyrimidin-5-yl)phenyl)-5,6-dihydro-4H-1,3-thiazin-2-amine•TFA] yielded an IC50 [2] of 3400 nM.

Work on `Cc1nn(C)cc1[C@@H]1C[C@@H](c2cccc(-c3cncnc3)c2)N=C(N)S1` (racemic) [Example 26, (±)-6-(1,3-dimethyl-1H-pyrazol-4-yl)-4-(3-(pyrimidin-5-yl)phenyl)-5,6-dihydro-4H-1,3-thiazin-2-amine•TFA] yielded an IC50 [2] of 2500 nM.

`Cn1cc([C@@H]2C[C@@H](c3cccc(-c4cncnc4)c3)N=C(N)S2)cn1` (racemic) [Example 27, (±)-6-(1-methyl-1H-pyrazol-4-yl)-4-(3-(pyrimidin-5-yl)phenyl)-5,6-dihydro-4H-1,3-thiazin-2-amine•TFA] was tested, and the IC50 [2] was 2600 nM.

In the case of `Cc1nn(C)c(C)c1[C@@H]1C[C@@H](c2cccc(-c3cncnc3)c2)N=C(N)S1` (racemic) [Example 28, (±)-4-(3-(pyrimidin-5-yl)phenyl)-6-(1,3,5-trimethyl-1H-pyrazol-4-yl)-5,6-dihydro-4H-1,3-thiazin-2-amine•TFA], the IC50 [2] is reported as over 30000 nM.

`Cc1noc(C)c1[C@@H]1C[C@@H](c2cc(-c3cncnc3)c(F)cc2F)N=C(N)S1` (racemic) [Example 29, (±)-4-(2,4-difluoro-5-(pyrimidin-5-yl)phenyl)-6-(3,5-dimethylisoxazol-4-yl)-5,6-dihydro-4H-1,3-thiazin-2-amine] gave an IC50 [2] of 200 nM.

`COc1ccc([C@@H]2C[C@@H](c3cc(-c4cncnc4)cs3)N=C(N)S2)cc1OC` (racemic) [Example 30, (±)-6-(3,4-dimethoxyphenyl)-4-(4-(pyrimidin-5-yl)thiophen-2-yl)-5,6-dihydro-4H-1,3-thiazin-2-amine] showed an IC50 [1] of 8000 nM.

In the case of `COc1ccc([C@@H]2C[C@@H](c3cccc(-c4cccc(C#N)c4)c3)N=C(N)S2)cc1OC` (racemic) [Example 31, 3′-((±)-2-amino-6-(3,4-dimethoxyphenyl)-5,6-dihydro-4H-1,3-thiazin-4-yl)biphenyl-3-carbonitrile], the IC50 [1] is reported as 8900 nM.

`CC#Cc1cncc(-c2cc([C@@H]3C[C@@H](c4ccc(OC)c(OC)c4)SC(N)=N3)c(F)cc2F)c1` (racemic) [Example 32, (±)-4-(2,4-difluoro-5-(5-(prop-1-ynyl)pyridin-3-yl)phenyl)-6-(3,4-dimethoxyphenyl)-5,6-dihydro-4H-1,3-thiazin-2-amine] gave an IC50 [1] of 1000 nM.
